{"source": "patent US4085224A", "about": "“Method of increasing feed utilization” (Eli Lilly and Company, priority 1976, dated 1978)", "key": {"[1]": {"test": "feed-utilization efficiency in sheep", "type": "in vivo", "details": "56 days; for Feed Intake: control 3.56; for Feed/Gain: control 8.38; for Average Daily Gain: control .42"}, "vaccinia virus": {"system": "vaccinia virus", "type": "cell-based", "details": "in vitro plaque suppression"}, "rumen fluid": {"system": "rumen fluid", "test": "in vitro rumen fluid volatile fatty acid production", "parameters": "species or system steer", "details": "1 ppm in rumen fluid, 16 hours at 38° C.", "from_the_text": "As discussed hereinabove, efficiency of carbohydrate utilization in ruminants is increased by treatments which stimulate the amimal's rumen flora to produce propionate compounds rather than acetate or butyrate compounds. The efficiency of feed use can be monitored by observing the production and concentration of propionate compounds in the rumen, using the following methods:\nRemen fluid is obtained from a steer with a surgically-installed fistula opening into the rumen. The steer is maintained on a high-grain ration. A sample of rumen fluid is strained through four layers of cheesecloth, and the filtrate is collected. The particulate matter retained by the cheesecloth is resuspended in enough physiological buffer to return it to the original volume of the rumen fluid, and this suspension is strained again. The buffer used has the following composition:\nThe two filtrates are combined and allowed to stand until particulate matter separates to the top. The clear layer is separated, diluted with the same buffer (1:1) and then adjusted to between pH 6.8 to 7.0.\nThe diluted rumen fluid (10 ml) is placed in a 25-ml flask with 40 mg of the above-described feed, an additional 1 mg of soybean protein, and the compound to be tested. Four replicate flasks are used per treatment. Two sets of four control flasks each are also employed. A zero-time control and an incubated 16-hour control are used. All test flasks are incubated for 16 hours at 38° C. […] The samples are allowed to settle, and the supernatants are analyzed by gas chromatography for propionate, acetate, and butyrate compounds."}, "[2]": {"system": "E. necatrix and E. tenella", "test": "anticoccidial activity in chicks, mixed infection (Table X)", "type": "in vivo", "details": "0.005 percent in feed", "from_the_text": "(§1) ^1 Four replicates, 5 broiler cockerels each."}, "[3]": {"system": "E. tenella, E. necatrix, E. maxima, E. brunetti, E. acervulina, and E. mivati", "test": "anticoccidial activity in chicks, mixed infection (Table X)", "type": "in vivo", "details": "0.01 percent in feed", "from_the_text": "as §1"}, "Emeria brunetti": {"system": "Emeria brunetti", "test": "anticoccidial activity in chicks (Table IX)", "type": "in vivo", "details": "E. brunetti, 0.005 percent in feed", "from_the_text": "(§2) ^1 Four replicates, 5 broiler cockerels each"}, "Eimeria acervulina": {"system": "Eimeria acervulina", "test": "anticoccidial activity in chicks (Table IX)", "type": "in vivo", "details": "E. acervulina; for Average Lesion Score: infected controls 1.60; for Oocysts Passed, Total/Bird: infected controls 36.32; for Percent Weight Gain: infected controls 63", "from_the_text": "as §2"}, "Eimeria maxima": {"system": "Eimeria maxima", "test": "anticoccidial activity in chicks (Table IX)", "type": "in vivo", "details": "E. maxima, 0.005 percent in feed", "from_the_text": "as §2"}, "solubility": {"test": "solubility", "type": "physicochemical"}, "type III poliovirus": {"system": "type III poliovirus", "type": "cell-based", "details": "in vitro plaque suppression"}, "herpes virus": {"system": "herpes virus", "test": "in vitro plaque suppression test", "type": "cell-based"}, "Semliki Forest virus": {"system": "Semliki Forest virus", "test": "in vitro plaque suppression test", "type": "cell-based"}, "[4]": {"system": "Infectious Bovine Rhinotracheitis virus", "type": "cell-based"}, "[5]": {"system": "Transmissible Gastro-enteritis virus", "type": "cell-based"}, "Newcastle Disease virus": {"system": "Newcastle Disease virus", "type": "cell-based", "details": "tissue-culture"}, "[6]": {"system": "Staphylococcus aureus (H-Heatley) NRRL B-314", "test": "turbidometric assay on semiautomated system (Autoturb), relative gram-positive activity", "type": "cell-based", "details": "relative to A-28086 factor A (standard); nutrient broth pH 7, four hours at 37° C.", "experimental": "The C2 -C6 -acyl ester derivatives of A-28086 factor A also have antibacterial and antifungal activity. In one aspect, these derivatives have increased gram-positive activity. The relative gram-positive activities of certain of these derivatives were compared with the activity of factor A. The compounds were tested by turbidometric assay on a semiautomated system (Autoturb® microbiological assay system, Elanco) described by N. R. Kuzel and F. W. Kavanaugh in J. Pharmaceut. Sci. 60 (5), 764 and 767 (1971). In testing the A-28086 antibiotics, the following test parameters were used: Staphylococcus aureus (H-Heatley) NRRL B-314 in a nutrient broth medium (pH 7), incubated for four hours at 37° C. Test samples and the standard were dissolved in methanol-water (10:90). The standard, A-28086 factor A, was presented to the Autoturb® carrousel at concentrations of 2, 3, 4, and 5 mcg/ml. Test compounds were diluted to contain approximately 3 or 4 mcg of activity per ml, as presented to the carrousel. The relative activities of test compounds, as compared to that of the standard, are given below: […]"}, "ruminal propionic acid": {"system": "ruminal propionic acid", "test": "ruminal propionic acid concentration in fistulated steers", "type": "in vivo", "details": "mean of five analyses in 14-day treatment", "experimental": "The test reported in Table XII was conducted with mature fistulated steers weighing about 1,000 lbs. each. Two steers were fed a normal diet, and four steers in each treatment group were fed an identical diet to which A-28086 factor A had been added. To each aliquot (100 ml) of rumen fluid taken, 10 percent metaphosphoric acid (100 ml) was added. The samples were allowed to settle, and the supernatants were analyzed by gas chromatographic methods to determine propionic acid concentrations.\nThe results in Table XII are the mean percent increases in ruminal propionic acid concentration, averaged over five analyses in a 14-day treatment period. Controls had approximately 20 molar percent propionic acid."}}, "data": [{"smiles": "CCC(C(=O)O)C1OC(C(C)C(O)C(C)C(=O)C(CC)C2OC3(C=CC(O)C4(CCC(C)(C5CCC(O)(CC)C(C)O5)O4)O3)C(C)CC2C)C(C)CC1C", "note": "(stereo not drawn) [A-28086 factor A]", "values": [{"measurement": "Feed Intake", "setting": "[1]; 9 g per ton of feed", "result": 3.29, "unit": "lbs./day"}, {"measurement": "Feed/Gain", "setting": "[1]; 9 g per ton of feed", "result": 7.40}, {"measurement": "Average Daily Gain", "setting": "[1]; 9 g per ton of feed", "result": ".44 lbs./day"}, {"measurement": "Feed Intake", "setting": "[1]; 18 g per ton of feed", "result": 3.15, "unit": "lbs./day"}, {"measurement": "Feed/Gain", "setting": "[1]; 18 g per ton of feed", "result": 8.31}, {"measurement": "Average Daily Gain", "setting": "[1]; 18 g per ton of feed", "result": ".38 lbs./day"}, {"measurement": "feed-utilization efficiency (in words)", "setting": "[1]; sheep", "result": "increases feed-utilization efficiency"}, {"measurement": "antiviral activity", "setting": "vaccinia virus", "result": "active"}, {"measurement": "Ratio of Treated to Control, Molar % acetate", "setting": "rumen fluid", "result": 0.94}, {"measurement": "Ratio of Treated to Control, Molar % butyrate", "setting": "rumen fluid", "result": 0.87}, {"measurement": "Ratio of Treated to Control, Molar % propionate", "setting": "rumen fluid", "result": 1.34}, {"measurement": "Ratio of Treated to Control, Total VFA mM/l", "setting": "rumen fluid", "result": 1.26}, {"measurement": "Cecal Lesions, Percent Reduction", "setting": "[2]", "result": 50, "unit": "%"}, {"measurement": "Intestinal Lesions, Percent Reduction", "setting": "[2]", "result": 59, "unit": "%"}, {"measurement": "Intestinal Lesions, Average", "setting": "[2]; infected controls 1.7", "result": 0.7}, {"measurement": "Cecal Lesions, Average", "setting": "[2]; infected controls 3.5", "result": 1.75}, {"measurement": "Percent Mortality", "setting": "[2]; infected controls 20", "result": 0, "unit": "%"}, {"measurement": "Percent Weight Gain", "setting": "[2]; infected controls 52", "result": 94, "unit": "%"}, {"measurement": "Cecal Lesions, Percent Reduction", "setting": "[3]", "result": 73, "unit": "%"}, {"measurement": "Intestinal Lesions, Percent Reduction", "setting": "[3]", "result": 79, "unit": "%"}, {"measurement": "Intestinal Lesions, Average", "setting": "[3]; infected controls 1.9", "result": 0.4}, {"measurement": "Cecal Lesions, Average", "setting": "[3]; infected controls 3.3", "result": 0.9}, {"measurement": "Percent Weight Gain", "setting": "[3]; infected controls 12", "result": 91, "unit": "%"}, {"measurement": "Percent Mortality", "setting": "[3]; infected controls 50", "result": 0, "unit": "%"}, {"measurement": "Oocysts Passed, Percent Reduction", "setting": "Emeria brunetti", "result": 58, "unit": "%"}, {"measurement": "Percent Mortality", "setting": "Emeria brunetti", "result": 0, "unit": "%"}, {"measurement": "Average Lesion Score", "setting": "Emeria brunetti; infected controls 1.7", "result": 1.2}, {"measurement": "Oocysts Passed, Total/Bird", "setting": "Emeria brunetti; infected controls 5.55", "result": "2.31 1 × 10^6"}, {"measurement": "Percent Weight Gain", "setting": "Emeria brunetti; infected controls 62", "result": 88, "unit": "%"}, {"measurement": "Oocysts Passed, Percent Reduction", "setting": "Eimeria acervulina; 0.0025 percent in feed", "result": 86, "unit": "%"}, {"measurement": "Percent Mortality", "setting": "Eimeria acervulina; 0.0025 percent in feed", "result": 0, "unit": "%"}, {"measurement": "Average Lesion Score", "setting": "Eimeria acervulina; 0.0025 percent in feed", "result": 1.25}, {"measurement": "Oocysts Passed, Total/Bird", "setting": "Eimeria acervulina; 0.0025 percent in feed", "result": "4.91 1 × 10^6"}, {"measurement": "Percent Weight Gain", "setting": "Eimeria acervulina; 0.0025 percent in feed", "result": 82, "unit": "%"}, {"measurement": "Oocysts Passed, Percent Reduction", "setting": "Eimeria acervulina; 0.005 percent in feed", "result": 83, "unit": "%"}, {"measurement": "Percent Mortality", "setting": "Eimeria acervulina; 0.005 percent in feed", "result": 0, "unit": "%"}, {"measurement": "Percent Reduction in Lesion Score", "setting": "Eimeria acervulina; 0.005 percent in feed", "result": 53, "unit": "%"}, {"measurement": "Average Lesion Score", "setting": "Eimeria acervulina; 0.005 percent in feed", "result": 0.75}, {"measurement": "Oocysts Passed, Total/Bird", "setting": "Eimeria acervulina; 0.005 percent in feed", "result": "6.15 1 × 10^6"}, {"measurement": "Percent Weight Gain", "setting": "Eimeria acervulina; 0.005 percent in feed", "result": 87, "unit": "%"}, {"measurement": "Oocysts Passed, Percent Reduction", "setting": "Eimeria maxima", "result": 40, "unit": "%"}, {"measurement": "Percent Mortality", "setting": "Eimeria maxima", "result": 0, "unit": "%"}, {"measurement": "Percent Reduction in Lesion Score", "setting": "Eimeria maxima", "result": 85, "unit": "%"}, {"measurement": "Average Lesion Score", "setting": "Eimeria maxima; infected controls 1.3", "result": 0.2}, {"measurement": "Oocysts Passed, Total/Bird", "setting": "Eimeria maxima; infected controls 3.24", "result": "1.95 1 × 10^6"}, {"measurement": "Percent Weight Gain", "setting": "Eimeria maxima; infected controls 65", "result": 85, "unit": "%"}, {"measurement": "solubility in organic solvents", "setting": "solubility; organic solvents such as methanol, ethanol, DMF, DMSO, ethyl acetate, chloroform, acetone, benzene", "result": "soluble"}, {"measurement": "solubility in water", "setting": "solubility; water", "result": "insoluble in water"}, {"measurement": "antiviral activity", "setting": "type III poliovirus", "result": "active"}, {"measurement": "antiviral activity", "setting": "herpes virus", "result": "active"}, {"measurement": "antiviral activity", "setting": "Semliki Forest virus", "result": "active"}, {"measurement": "antiviral activity", "setting": "[4]", "result": "active"}, {"measurement": "antiviral activity", "setting": "[5]", "result": "active"}, {"measurement": "antiviral activity", "setting": "Newcastle Disease virus", "result": "active"}, {"measurement": "Relative G+ Activity", "setting": "[6]", "result": 1}, {"measurement": "Percent Increase Over Control in ruminal propionic acid concentration", "setting": "ruminal propionic acid; 25 mg/day", "result": 17.4, "unit": "%"}, {"measurement": "Percent Increase Over Control in ruminal propionic acid concentration", "setting": "ruminal propionic acid; 100 mg/day", "result": 54.0, "unit": "%"}]}]}
